The nature of the series: logP by HPLC on reversed-phase column (EEC Directive 79/831 Annex V.A8). To be noted: for logP: HPLC on reversed-phase column (C 18), EEC Directive 79/831 Annex V.A8.

SMILES strings stand for the structures.

By logP is commonly meant a log measure of how a compound divides between an organic and an aqueous phase. Read a low logP as a more hydrophilic compound. As usually defined, the chromatographic logP is a lipophilicity value derived from retention on a column. A higher chromatographic logP goes with higher lipophilicity.

The molecule `Cn1nc(C(F)F)c(C(=S)Nc2ccccc2C2CC2C2CC2)c1Cl` (single isomer, unassigned) [Example 49] came in with a logP of 3.79.

Consider `Cn1nc(C(F)F)c(C(=S)Nc2ccccc2C2CC2C2CC2)c1Cl` (single isomer, unassigned) [Example 50], for which the logP stood at 3.81.

The molecule `Nc1ccc(F)cc1-c1ccc(C(F)(F)F)cc1` [5-fluoro-4′-(trifluoromethyl)biphenyl-2-amine] displayed a chromatographic logP (reversed-phase HPLC column (C 18)) of 3.52. In turn, `CC(C)CCc1cc(F)ccc1NC(=O)c1c(C(F)F)nn(C)c1F` [Example 10] registered a logP of 3.67. Still for that read-out and setting: with `CC(C)Oc1cccc(NC(=S)c2c(C(F)F)nn(C)c2Cl)c1` [Example 171] the figure was 3.41; with `CC(C)c1ccccc1NC(=O)c1c(C(F)F)nn(C)c1F` [compound 1], 2.82; with `CC(C)c1ccccc1NC(=O)c1c(C(F)F)nn(C)c1Cl` [compound 2], 3.02. The same measure, in the same setting: in the case of `Cn1nc(C(F)F)c(C(=O)Nc2ccccc2C(C)(C)C)c1Cl` [compound 4] it was 3.21. In the case of `CC(C)=CCc1ccccc1NC(=O)c1c(C(F)F)nn(C)c1Cl` [compound 5], the lipophilicity (logP) is 3.35. `CC(C)=CCc1ccccc1NC(=O)c1c(C(F)F)nn(C)c1F` [compound 6] displayed a logP of 3.20. Molecule `Cc1cccc(CCC(C)(C)C)c1NC(=O)c1c(C(F)F)nn(C)c1F` [compound 15] came in with a logP of 3.85.

Consider `Cc1cccc(NC(=O)c2c(C(F)F)nn(C)c2F)c1CCC(C)(C)C` [compound 16], for which the logP came to 4.06. Consider `Cc1ccc(CCC(C)(C)C)c(NC(=O)c2c(C(F)F)nn(C)c2F)c1` [compound 17], for which the logP is 4.29. The molecule `Cn1nc(C(F)F)c(C(=O)Nc2cc(Cl)ccc2CCC(C)(C)C)c1F` [compound 18] returned a logP of 4.51.

The molecule `C#CCOc1ccccc1NC(=O)c1c(C(F)F)nn(C)c1F` [compound 26] yielded a logP of 2.71.

Turning to `Cn1nc(C(F)F)c(C(=O)Nc2ccccc2OCC(C)(C)C)c1F` [compound 27], the logP came out at 4.08. On to `Cn1nc(C(F)F)c(C(=O)Nc2ccccc2OC(F)(F)C(F)F)c1F` [compound 29], for which the logP was 3.08. For the molecule `Cn1nc(C(F)F)c(C(=O)Nc2ccccc2OC(F)(F)C(F)F)c1Cl` [compound 30], the logP stood at 3.31. Turning to `Cn1nc(C(F)F)c(C(=O)Nc2cccc(Cl)c2SCC(F)F)c1F` [compound 33], the logP is on record as 3.53.

On to `Cn1nc(C(F)F)c(C(=O)Nc2cc(F)ccc2SCC(F)F)c1F` [compound 34], for which the logP is given as 3.33. The molecule `Cn1nc(C(F)F)c(C(=O)Nc2ccccc2SC(F)(F)F)c1F` [compound 36] had a logP of 3.37.

On to `Cn1nc(C(F)F)c(C(=O)Nc2ccccc2SCC(F)(F)F)c1F` [compound 37], for which the logP is 3.29.

`Cn1nc(C(F)F)c(C(=O)Nc2cccc(Cl)c2SCC(F)(F)F)c1F` [compound 39] showed a logP of 3.73. The molecule `Cn1nc(C(F)F)c(C(=O)Nc2cc(Cl)ccc2SCC(F)(F)F)c1F` [compound 40] had a logP of 3.92.

As to `Cn1nc(C(F)F)c(C(=O)Nc2ccccc2SCC2CC2(Cl)Cl)c1F` (stereo not drawn) [compound 41], the logP turned out to be 3.27. Still for that read-out and setting: with `Cn1nc(C(F)F)c(C(=O)Nc2ccccc2SC(F)(F)C(F)(F)C(F)(F)F)c1F` [compound 42] the figure was 4.25. Same read-out and setting: with `Cn1nc(C(F)F)c(C(=O)Nc2ccccc2Br)c1F` [compound 43] the figure was 2.82; with `Cn1nc(C(F)F)c(C(=O)Nc2ccccc2Br)c1Cl` [compound 44], 3.13.

Take `Cn1nc(C(F)F)c(C(=O)Nc2ccccc2C2CC2)c1F` [compound 45]: the logP came out at 2.96. As for `CC1CCCC(c2ccccc2NC(=O)c2c(C(F)F)nn(C)c2F)C1` (stereo not drawn) [compound 52], the logP is 3.23.

`Cn1nc(C(F)F)c(C(=O)Nc2cccc3c2CCCC3)c1F` [compound 56] yielded a logP of 3.08. Molecule `Cn1nc(C(F)F)c(C(=O)Nc2cccc3c2CCCC3)c1Cl` [compound 57] yielded a logP of 3.31. `Cn1nc(C(F)F)c(C(=O)Nc2cccc3c2OCCO3)c1Cl` [compound 58] had a logP of 2.70. Molecule `Cn1nc(C(F)F)c(C(=O)Nc2cccc3c2OCCO3)c1F` [compound 59] had a logP of 2.44. Consider `Cn1nc(C(F)F)c(C(=O)Nc2cccc3c2OC(F)(F)O3)c1F` [compound 62], for which the logP is listed as 2.77. For `Cn1nc(C(F)F)c(C(=O)Nc2cccc3c2OC(F)(F)O3)c1Cl` [compound 63], the logP is given as 3.00. Molecule `Cc1ccccc1-c1ccccc1NC(=O)c1c(C(F)F)nn(C)c1Cl` [compound 76] gave a logP of 4.14.

`Cc1cc(C)cc(-c2ccccc2NC(=O)c2c(C(F)F)nn(C)c2F)c1` [compound 81] displayed a logP of 4.11. In the case of `Cc1cc(C)cc(-c2ccccc2NC(=O)c2c(C(F)F)nn(C)c2Cl)c1` [compound 82], the logP amounted to 4.51. `Cn1nc(C(F)F)c(C(=O)Nc2ccccc2-c2cc(F)cc(F)c2)c1F` [compound 91] had a logP of 3.31. `Cn1nc(C(F)F)c(C(=O)Nc2ccccc2-c2cc(F)cc(F)c2)c1Cl` [compound 92] returned a log partition coefficient (logP) of 3.55. In turn, `CC(C)c1cccc(-c2ccccc2NC(=O)c2c(C(F)F)nn(C)c2F)c1` [compound 93] registered a logP of 4.30. `CC(C)c1cccc(-c2ccccc2NC(=O)c2c(C(F)F)nn(C)c2Cl)c1` [compound 95] displayed a logP of 4.76. Same read-out and setting: in the case of `CC(C)c1ccc(-c2ccccc2NC(=O)c2c(C(F)F)nn(C)c2F)cc1` [compound 96] it was 4.44. `CC(C)c1ccc(-c2ccccc2NC(=O)c2c(C(F)F)nn(C)c2Cl)cc1` [compound 97] gave a logP of 4.86. Regarding `Cn1nc(C(F)F)c(C(=O)Nc2ccccc2-c2ccc(F)c(Cl)c2)c1F` [compound 102], the logP worked out at 3.60.

With `Cn1nc(C(F)F)c(C(=O)Nc2ccccc2-c2ccc(F)c(Cl)c2)c1Cl` [compound 103], the logP was found to be 3.85. For the molecule `Cn1nc(C(F)F)c(C(=O)Nc2ccccc2-c2ccc(C(C)(C)C)cc2)c1F` [compound 109], the logP was 4.73.

Take `Cn1nc(C(F)F)c(C(=O)Nc2ccccc2-c2ccc(C(C)(C)C)cc2)c1Cl` [compound 110]: the logP is reported as 5.14. Turning to `CC(C)Oc1cccc(-c2ccccc2NC(=O)c2c(C(F)F)nn(C)c2F)c1` [compound 111], the logP is 3.96.

`CC(C)Oc1cccc(-c2ccccc2NC(=O)c2c(C(F)F)nn(C)c2Cl)c1` [compound 112] returned a logP of 4.36. For the molecule `CC(C)Oc1ccc(-c2ccccc2NC(=O)c2c(C(F)F)nn(C)c2F)cc1` [compound 113], the logP came to 4.01.

As to `CC(C)Oc1ccc(-c2ccccc2NC(=O)c2c(C(F)F)nn(C)c2Cl)cc1` [compound 114], the logP amounted to 4.36. `Cn1nc(C(F)F)c(C(=O)Nc2ccccc2-c2ccc(C(F)(F)F)cc2)c1Cl` [compound 120] came in with a logP of 3.94. The molecule `Cn1nc(C(F)F)c(C(=O)Nc2ccccc2-c2cccc(Cl)c2Cl)c1F` [compound 121] displayed a lipophilicity (logP) of 3.76. `Cn1nc(C(F)F)c(C(=O)Nc2ccccc2-c2cccc(Cl)c2Cl)c1Cl` [compound 122]: the logP was 4.06.

For the molecule `Cn1nc(C(F)F)c(C(=O)Nc2ccccc2-c2ccc(Cl)cc2Cl)c1F` [compound 123], the logP is given as 3.89. As for `Cn1nc(C(F)F)c(C(=O)Nc2ccccc2-c2ccc(Cl)cc2Cl)c1Cl` [compound 124], the logP worked out at 4.24. As for `Cn1nc(C(F)F)c(C(=O)Nc2ccccc2-c2cc(Cl)cc(Cl)c2)c1F` [compound 127], the logP was determined as 4.01. Molecule `Cn1nc(C(F)F)c(C(=O)Nc2ccccc2-c2cc(Cl)cc(Cl)c2)c1Cl` [compound 128] returned a logP of 4.31. In turn, `CO/N=C(\C)c1ccc(-c2ccccc2NC(=O)c2c(C(F)F)nn(C)c2F)cc1` [compound 129] gave a logP of 3.78. Take `CO/N=C(\C)c1ccc(-c2ccccc2NC(=O)c2c(C(F)F)nn(C)c2Cl)cc1` [compound 130]: the logP was found to be 4.11. Same read-out and setting: in the case of `CC(C)COc1ccc(-c2ccccc2NC(=O)c2c(C(F)F)nn(C)c2F)cc1` [compound 131] it was 4.61. Molecule `Cn1nc(C(F)F)c(C(=O)Nc2ccccc2-c2cccc([Si](C)(C)C)c2)c1Cl` [compound 132] came in with a logP of 5.25. Molecule `Cn1nc(C(F)F)c(C(=O)Nc2ccccc2-c2cccc([Si](C)(C)C)c2)c1F` [compound 133] registered a lipophilicity (logP) of 4.83. `Cn1nc(C(F)F)c(C(=O)Nc2ccccc2-c2ccc([Si](C)(C)C)cc2)c1F` [compound 134]: the logP stood at 4.98. Same read-out and setting: with `CC(C)COc1ccc(-c2ccccc2NC(=O)c2c(C(F)F)nn(C)c2Cl)cc1` [compound 135] the figure was 4.96; with `Cn1nc(C(F)F)c(C(=O)Nc2ccccc2-c2ccc([Si](C)(C)C)cc2)c1Cl` [compound 136], 5.39; with `Cn1nc(C(F)F)c(C(=O)Nc2ccccc2-c2cccc(OC(F)(F)F)c2)c1F` [compound 142], 3.83. `Cn1nc(C(F)F)c(C(=O)Nc2ccccc2-c2cccc(OC(F)(F)F)c2)c1Cl` [compound 143] gave a logP of 4.11. On the same count and under the same terms, with `Cn1nc(C(F)F)c(C(=O)Nc2ccccc2-c2ccc(OC(F)(F)F)cc2)c1Cl` [compound 144] the figure was 4.19; with `Cn1nc(C(F)F)c(C(=O)Nc2ccccc2-c2ccc(OC(F)(F)F)cc2)c1F` [compound 145], 3.92; with `CC(C)O/N=C/c1ccc(-c2ccccc2NC(=O)c2c(C(F)F)nn(C)c2F)cc1` [compound 146], 4.31. In turn, `CC(C)O/N=C/c1ccc(-c2ccccc2NC(=O)c2c(C(F)F)nn(C)c2Cl)cc1` [compound 147] showed a logP of 4.63.

`C/C(=N\OC(C)(C)C)c1ccc(-c2ccccc2NC(=O)c2c(C(F)F)nn(C)c2F)cc1` [compound 156] showed a logP of 5.17.

The values above are taken from patent US9375004B2 (Bayer Intellectual Property GmbH, priority 2010, dated 2016).
